Measured values reported in patent US12446583B2, “Methods of pest control in soybean” (SYNGENTA CROP PROTECTION AG, priority 2012, dated 2025).

Tested on: Euschistus heros
Assay: Euschistus heros (Neotropical Brown Stink Bug) contact/feeding activity on sprayed soybean plants
Type: in vivo
Details: for mortality at 50 ppm: 120 h, read-out: control (mortality and growth effects)
Procedure: Euschistus heros (Neotropical Brown Stink Bug) (Contact/Feeding Activity)
2 week old soybean plants are sprayed in a turn table spray chamber with the diluted spray solutions. After drying, 2 soybean seeds are added and plants are infested with 10 N-2 nymphs of the neotropical brown stink bug Euschistus heros in plastic test boxes. Boxes are incubated in a climate chamber at 25° C. and 60% RH. Evaluation is done 5 days after infestation on mortality and growth effects.
Compounds are tested according to the above method.

Structure (SMILES)	mortality at 50 ppm [%]	Control/% (application rate 0.8 ppm) [%]	Control/% (application rate 3 ppm) [%]	Control/% (application rate 12.5 ppm) [%]
CCN1OCC(NC(=O)c2ccc(C3=NOC(c4cc(Cl)c(Cl)c(Cl)c4)(C(F)(F)F)C3)cc2Cl)C1=O (stereo not shown) [Compound A1]	≥ 80			
CCN1OCC(NC(=O)c2ccc(C3=NOC(c4cc(Cl)cc(Cl)c4)(C(F)(F)F)C3)cc2Br)C1=O (stereo not shown) [Compound A2]	≥ 80			
CCN1OCC(NC(=O)c2ccc(C3=NOC(c4cc(Cl)c(Cl)c(Cl)c4)(C(F)(F)F)C3)cc2Br)C1=O (stereo not shown) [Compound A3]	≥ 80			
CCN1OCC(NC(=O)c2ccc(C3=NOC(c4cc(Cl)cc(Cl)c4)(C(F)(F)F)C3)cc2C(F)(F)F)C1=O (stereo not shown) [Compound A4]	≥ 80			
CCN1OCC(NC(=O)c2ccc(C3=NOC(c4cc(Cl)c(Cl)c(Cl)c4)(C(F)(F)F)C3)cc2C(F)(F)F)C1=O (stereo not shown) [Compound A5]	≥ 80			
Cc1cc(C2=NOC(c3cc(Cl)cc(Cl)c3)(C(F)(F)F)C2)ccc1C(=O)NC1CON(C)C1=O (stereo not shown) [Compound A15]	≥ 80			
CCN1OCC(NC(=O)c2ccc(C3=NOC(c4cc(Cl)cc(Cl)c4)(C(F)(F)F)C3)cc2C)C1=O (stereo not shown) [Compound A17]	≥ 80			
Cc1cc(C2=NOC(c3cc(Cl)cc(Cl)c3)(C(F)(F)F)C2)ccc1C(=O)N[C@@H]1CON(CC(F)(F)F)C1=O (stereo partly shown) [Compound of the invention]		15	85	100
Cc1cc(C2=NOC(c3cc(Cl)cc(Cl)c3)(C(F)(F)F)C2)ccc1C(=O)N[C@@H]1CON(Cc2ccccc2)C1=O (stereo partly shown) [Reference compound, reference compound]		0	35	90
